Test results taken from PMC8684484, “The assessment of Pseudomonas aeruginosa lectin LecA binding characteristics of divalent galactosides using multiple techniques” (Glycobiology, 2021).

Experiments:
LecA [1] = biological target: T1, LecA (Pseudomonas aeruginosa, UniProt Q05097); experiment: Fluorescence-based thermal shift assay (TSA), Sypro orange; type: binding; details: ligand 500 μM; for Tm of LecA: no ligand 71.7
T1 construct: purchased Sigma–Aldrich (Steinheim, Germany)
Experimental: As ligand binding is known to shift the melting point of proteins in a ligand concentration dependent manner, we performed the TSA experiments with two different concentrations of LecA (0.5 and 1 mg/mL) containing the fluorescent dye sypro orange. […] Therefore, we selected a fixed concentration of 1 mg/mL for the subsequent experiments. […] Divalent 2 stabilizes LecA by more than 11°C at a concentration of 20 μM (Figure 7).
TSA was performed using a standard real-time PCR instrument. To monitor protein unfolding, the fluorescent dye Sypro orange was used. Sypro orange is an environmentally sensitive dye (Thermo Fischer 5000x in DMSO). The unfolding process exposes the hydrophobic region of proteins and results in a large increase in fluorescence, which is used to monitor the protein-unfolding transition ([Lo et al. 2004]). The TSA was performed with a BioRad CFX96 real-time PCR machine, and analysis for binding induced shifts in thermal transition was performed with Bio-Rad CFX Manager 3.1 Software provided by the manufacturer (BioRad, Hercules, CA, USA).
Galactose based inhibitors specifically bind to the binding pocket of the lectin. Ligands could stabilize LecA (0.5 and 1 mg/mL) upon binding and therefore the protein Tm might increase. The shift in Tm with an addition of the ligand (ΔTm) serves as a qualitative measure of protein stability and allows to determine whether a protein–ligand binding event occurs. We here show the effect of different carbohydrates on the thermal denaturation of LecA. Sypro orange conc, used: 320× from commercial 5000×).

[2] = biological target: T2, Maclura pomifera Lectin (MPL) (Maclura pomifera, UniProt P18674); experiment: ACE selectivity experiment with MPL as binding competitor; details: mixture of LecA and MPL; 1 mM of 1 or 20 μM of 2 in BGE
T2 construct: purchased Vector Laboratories (San Francisco, CA, USA)
Experimental: A mixture of LecA and MPL was analyzed by ACE, and affinity studies were carried out by adding the carbohydrates 1 and 2 to the BGE.
CE analyses were carried out using an Agilent 7100 instrument (Agilent technologies, USA). Bare fused-silica capillaries, with a 100 μm internal diameter, 365 μm outer diameter and a 50 cm total length, were from Biotaq (Gaithersburg, MD, USA). The detection window of the capillary was created at 10 cm from the outlet of the capillary. Hydrodynamic injections were performed at 17 mbar for 4 s, by injecting LecA or MPL (10 μM). The separation voltage was set at −10 kV and the caplillary temperature was maintained at 25°C during analysis. Ultraviolet detection was performed from 190 nm to 280 nm, but data recorded at 214 nm were used in this study. The BGE for the analysis of the lectins was potassium phosphate prepared by dissolving the appropriate amount of compounds in water and adjusting the pH with a sodium hydroxide solution. Capillaries were coated with Ultra Trol LN. Stable currents of 45 μA were observed during the affinity measurements with optimum buffer conditions (25 mM KH2PO4 at pH 7).
In order to study the affinity of LecA toward inhibitors, LecA was injected and carbohydrate inhibitors were added to the BGEs. BGEs were prepared containing 1 mM of compound 1, 20 μM of compound 2, or without carbohydrate. […]

LecA [3] = biological target: T1, LecA; experiment: Native ESI-MS occupancy of the LecA tetramer; type: binding; details: ligand 600 μM, LecA 10 μM; estimated from MS intensities
Experimental: At the high concentration of monovalent compound 1 (600 μM) incubated with LecA (10 μM), a varying number of binding pockets of the tetrameric lectin were occupied by the monovalent ligand indicated by four different peaks in close proximity (Figure 8b). At these concentrations, an estimated number of copies of LecA of 8% remains fully unoccupied, 18% has one pocket occupied, 26% has two pockets occupied, 27% has three pockets occupied and 21% is fully occupied. We used the intensity values as determined by mass spectrometry as a proxy of their abundances in solution to calculate the occupancy values, for which previously it was shown that there is good correlation ([Seo et al. 2016]).
At a low (substoichiometric) concentration of divalent compound 2 (2 μM), 3 m/z peaks were observed that correspond to unbound LecA (estimated 6%), LecA bound to one compound 2 (estimated 39%) and LecA bound to two of the divalent ligand 2 (estimated 55%) (Figure 8c). […] As no peaks were detected corresponding to a single or triple binding pockets of the tetrametric lectin, excellent support is provided for the effective divalent binding of our molecule at reasonable concentrations.
To investigate the interaction between LecA and compounds 1 and 2, we incubated these compounds with LecA and transferred the produced complex into a 150 mM ammonium acetate solution (pH 7.5) by applying 10 μM of the protein ligand complex in a ratio of 1:1 on a pre-equilibrated 6-kDa Micro Bio-Spin column (Bio-Rad). The protein was eluted by centrifugation at 1,000 × g and 4°C. MS measurements were performed in positive ion mode using an Electrospray Ionization Time-of-Flight instrument (LC-T; Micromass, Manchester, UK) equipped with a Z-spray nanoelectrospray ionization source. Samples were sprayed from in-house prepared borosilicate glass capillaries (Kwik-Fil; World Precision Instruments, Sarasota, FL) prepared on a P-97 puller (Sutter Instruments, Novato, CA, USA) and coated with a thin layer of gold by using an Edwards Scan coat six Pirani 501 sputter coater (Edwards Laboratories, Milpitas, CA, USA). Instrument settings were adjusted for optimal transmission of high mass ions. A capillary voltage of 1300 V was used, in combination with a sampling cone voltage of 60 V. The source backing pressure was elevated to approximately 6.7 mbar in order to promote collisional cooling. All TOF data were mass calibrated by using an aqueous solution of cesium iodide (25 mg·mL^−1) and interpreted manually using MassLynx software (Waters, version 4.1).

LecA [4] = biological target: T1, LecA; experiment: Affinity capillary electrophoresis (ACE), direct binding, μeff shift of LecA with carbohydrate in BGE
Experimental: For affinity studies, two different LecA ligands were used. The first was the carboxylated galactoside (1). This was used as the reference monovalent ligand and its negatively charged carboxylate increases the chances of a protein shift in CE where charges are the important mobility determinant. Furthermore we used the bivalent carbohydrate (2), previously optimized for bivalent binding ([Yu et al. 2019b]). These glycoligands were added to the optimized CE background electrolyte (BGE) and the protein LecA was injected. For KD determination the BGE containing increasing concentrations of carbohydrate 1 or carbohydrate 2 were prepared and used for the analysis of LecA (10 μM). […] For each carbohydrate and each concentration, the difference of the measured μeff of LecA with the μeff acquired without carbohydrate in the BGE, was determined. […]
CE analyses were carried out using an Agilent 7100 instrument (Agilent technologies, USA). […] Ultraviolet detection was performed from 190 nm to 280 nm, but data recorded at 214 nm were used in this study. […]
BGEs containing increasing concentrations of compound 1 and/or compound 2 were prepared at the pH for which μeff shifts were observed and used for KD determination. For each carbohydrate and each studied concentration, the difference of the measured μeff of LecA with the μeff obtained without carbohydrate was determined. […]

MPL = biological target: T3, MPL (Maclura pomifera, UniProt P18674); experiment: Bio-layer interferometry (BLI), biotinylated ligand on streptavidin sensor; type: binding; details: immobilized ligand
T3 construct: purchased Vector Laboratories (San Francisco, CA, USA)
Experimental: (§1) The biotinylated galactoside 3 (Figure 5) was immobilized on a streptavidin coated sensor. […] This is likely due to the well-known low affinity of monovalent ligands for most lectins even though the presentation of the ligand on the chip was also multivalent, but apparently not matching the distances between binding sites. Next, the binding properties of the divalent biotinylated 4 with the mentioned lectins were evaluated. […] Indeed, during the dissociation step, the signal only partially decreases down to the baseline and this lack of full dissociation indicates high affinity. Using this setup, kinetic parameters of the interaction were determined for the divalent galactoside to evaluate whether the divalent binding mode of this ligand influences the lectin–ligand kinetics. By fitting the sensorgrams with a global model ([…]), association (ka or kon) and dissociation (kd or koff) constants were determined and the KD was calculated from the ratio of kd over the ka while the residence time (τ) was derived from 1/kd. […] The same was true for compound 4 and lectins MPL and JIL.
(§2) BLI measurements were carried out using an Octet RED 384 instrument (ForteBio). Biosensors were transferred into fresh assay buffer for 180 s to collect a baseline read. Compound 3 and compound 4 were immobilized on streptavidin (SA)-functionalized biosensors to maximum levels by incubation for 900 s at 1 μM ([Guo et al. 2018]). For each set of biosensors, an 180 s baseline in buffer alone was acquired followed by an 1800 s association step and an 1800 s dissociation step. All experiments were carried out using PBS (10 mM phosphate, 150 mM NaCl, pH 7.4) as the assay buffer at 298 K. Data were processed and analyzed and KD values were determined using the global fitting procedures as implemented in Octet® system Data Analysis Software 9.0.0.48 (Pall ForteBio LLC, Menlo Park, CA, USA). Kinetic responses were fitted to a 1-site binding model to obtain values for association (kon) and dissociation (koff) rate constants. The KD derived from kinetic fitting was calculated as koff/kon.

LecA [5] = biological target: T1, LecA; experiment: as above; type: binding; details: immobilized ligand
Experimental: as §1, §2

JIL (Jacalin lectin) = biological target: T4, JIL (Jacalin lectin) (Artocarpus integer, UniProt P18670); experiment: as above; type: binding, Jackfruits; details: immobilized ligand
T4 construct: purchased Sigma–Aldrich (Steinheim, Germany)
Experimental: as §1
BLI measurements were carried out using an Octet RED 384 instrument (ForteBio). Biosensors were transferred into fresh assay buffer for 180 s to collect a baseline read. […] The KD derived from kinetic fitting was calculated as koff/kon.

T1 sequence (Q05097 2-122): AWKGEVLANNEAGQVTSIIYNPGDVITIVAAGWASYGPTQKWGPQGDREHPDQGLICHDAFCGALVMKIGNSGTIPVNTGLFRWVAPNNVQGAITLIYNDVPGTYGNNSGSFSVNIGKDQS
T3 sequence (P18674 whole entry): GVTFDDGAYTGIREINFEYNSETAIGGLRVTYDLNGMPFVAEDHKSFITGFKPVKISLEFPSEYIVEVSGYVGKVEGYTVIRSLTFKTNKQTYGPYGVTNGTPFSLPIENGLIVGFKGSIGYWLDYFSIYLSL
T3 sequence (P18676 whole entry partner): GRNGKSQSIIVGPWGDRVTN
T4 sequence (P18670 whole entry): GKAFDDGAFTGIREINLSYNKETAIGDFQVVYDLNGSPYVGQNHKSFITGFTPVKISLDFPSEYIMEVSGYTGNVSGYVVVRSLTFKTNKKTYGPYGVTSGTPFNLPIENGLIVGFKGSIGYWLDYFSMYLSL
T4 sequence (P18673 whole entry, further chain): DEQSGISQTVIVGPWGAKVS
T2 sequence (P18674 whole entry): as the sequence (P18674 whole entry) above

| Compound | stabilization of LecA (ΔTm) (LecA [1]; LecA 1 mg/mL) | Tm of LecA (LecA [1]) [°C] | μeff shift of MPL with carbohydrate in BGE [2] | LecA fully occupied (LecA [3]) [%] | LecA fully unoccupied (LecA [3]) [%] | LecA with one pocket occupied (LecA [3]) [%] | LecA with three pockets occupied (LecA [3]) [%] | LecA with two pockets occupied (LecA [3]) [%] | Kd (LecA [4]) [µM] | μeff shift of LecA with carbohydrate in BGE (LecA [4]; mixture of LecA and MPL, 1 mM of 1 or 20 μM of 2 in BGE) | BLI signal (MPL; MPL at 1 μM) | BLI association and dissociation (MPL; MPL up to 10 μM) | BLI signal (LecA [5]; LecA at 1 μM) | BLI association and dissociation (LecA [5]; LecA up to 10 μM) | BLI signal (JIL (Jacalin lectin); JIL at 1 μM) | BLI association and dissociation (JIL (Jacalin lectin); JIL up to 10 μM) |
| --- | --- | --- | --- | --- | --- | --- | --- | --- | --- | --- | --- | --- | --- | --- | --- | --- |
| OC[C@H]1OC(O)[C@@H](O)[C@@H](O)[C@@H]1O (stereo partly drawn) [D-Mannose, D-mannose] | did not stabilize LecA at all | 71.7 | – | – | – | – | – | – | – | – | – | – | – | – | – | – |
| O=C(O)CO[C@@H]1O[C@H](CO)[C@H](O)[C@H](O)[C@H]1O [Compound 1] | – | 74.0 | sizeable shift | 21 | 8 | 18 | 27 | 26 | 27 | sizeable shift | – | – | – | – | – | – |
| O=C(CCCC[C@@H]1SC[C@@H]2NC(=O)N[C@@H]21)NCCCCCC(=O)NCCCO[C@@H]1O[C@H](CO)[C@H](O)[C@H](O)[C@H]1O [Compound 3] | – | – | – | – | – | – | – | – | – | – | no detectable signal | no significant association and dissociation phenomena | no detectable signal | no significant association and dissociation phenomena | no detectable signal | no significant association and dissociation phenomena |
